Experimental data as given in publication PMC8474116, “Discovery of Novel Acetamide-Based Heme Oxygenase-1 Inhibitors with Potent In Vitro Antiproliferative Activity” (Journal of Medicinal Chemistry, 2021).

Legend:
HO-1 = biological target: T1, HO-1 (Rattus norvegicus, UniProt P06762); experiment: HO-1 enzymatic activity, rat spleen microsomal fraction (bilirubin formation); assay type: biochemical; settings: for IC50: rat spleen microsomal fraction, mean of triplicate ± SD; for SI (HO-2/HO-1): ratio of HO-2 and HO-1 IC50
T1 construct: selected to use the most native (i.e., closest to in vivo) forms of HO-1 and HO-2; from tissue; host or cells: rat spleen (male Sprague-Dawley), microsomal fraction
T1 sequence (P06762 1-289): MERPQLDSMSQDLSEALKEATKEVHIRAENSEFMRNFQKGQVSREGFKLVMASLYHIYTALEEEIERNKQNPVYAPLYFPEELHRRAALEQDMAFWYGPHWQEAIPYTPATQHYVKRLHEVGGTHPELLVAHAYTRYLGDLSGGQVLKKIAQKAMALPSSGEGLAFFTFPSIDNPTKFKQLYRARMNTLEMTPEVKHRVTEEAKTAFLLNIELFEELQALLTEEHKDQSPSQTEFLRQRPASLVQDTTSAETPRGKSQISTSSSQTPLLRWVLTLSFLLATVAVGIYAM
Experimental: (§1) HO-1 and HO-2 were obtained, respectively, from the rat spleen and brain as the microsomal fraction prepared by differential centrifugation; the dominance of HO-1 protein in the rat spleen and HO-2 in the rat brain has been well documented.[24] These particular microsomal preparations were selected to use the most native (i.e., closest to in vivo) forms of HO-1 and HO-2. Spleen and brain (Sprague-Dawley rats) microsomal fractions were prepared according to the procedure outlined by Ryter et al.[2] The experiments reported in the present paper complied with the current Italian law and met the guidelines of the Institutional Animal Care and Use Committee of the Ministry of Health (Directorate General for Animal Health and Veterinary Medicines, Italy) “Dosing of enzymatic activities in rat microsomes” (2018–2022), project code 02769.N.VLY. The experiments were performed in male Sprague-Dawley albino rats (150 g body weight and age 45 d). They had free access to water and were kept at room temperature with a natural photoperiod (12 h light–12 h dark cycle). For measuring HO-1 and HO-2 activities, each rat was sacrificed and their spleen and brain were excised and weighed. A homogenate (15%, w/v) of spleens and brains pooled from four rats was prepared in ice-cold HO-homogenizing buffer (50 mM Tris buffer, pH 7.4, containing 0.25 M sucrose) using a Potter–Elvehjem homogenizing system with a Teflon pestle. The microsomal fraction of rat spleen and brain homogenate was obtained by centrifugation at 10 000g for 20 min at 4 °C, followed by centrifugation of the supernatant at 100 000g for 60 min at 4 °C. The 100 000g pellet (microsomes) was resuspended in 100 mM of potassium phosphate buffer, pH 7.8, containing 2 mM MgCl2 with a Potter–Elvehjem homogenizing system. The rat spleen and brain microsomal fractions were divided into equal aliquots, placed into microcentrifuge tubes, and stored at −80 °C for up to 2 months.
(§2) Liver cytosol has been used as a source of biliverdin reductase. Rat liver was perfused through the hepatic portal vein with cold 0.9% NaCl; then, it was cut and flushed with 2 × 20 mL of ice-cold PBS to remove all of the blood. Liver tissue was homogenized in 3 volumes of a solution containing 1.15% KCl w/v and Tris buffer 20 mM, pH 7.8 on ice. Homogenates were centrifuged at 10 000g for 20 min at 4 °C. The supernatant was decanted and centrifuged at 100 000g for 1 h at 4 °C to sediment the microsomes. The 100 000g supernatant was saved and then stored in small amounts at −80 °C after its protein concentration was measured.
(§3) The HO-1 and HO-2 activities were determined by measuring the bilirubin formation using the difference in absorbance at 464–530 nm, as described by Ryter et al.[2] Reaction mixtures (500 μL) consisted of 20 mM of Tris–HCl, pH 7.4, (1 mg/mL) microsomal extract, 0.5–2 mg/mL of biliverdin reductase, 1 mM of NADPH, 2 mM of glucose 6-phosphate (G6P), 1 U of G6P dehydrogenase, 25 μM of hemin, and 10 μL of DMSO (or the same volume of DMSO solution of test compounds to a final concentration of 100, 10, and 1 μM). Incubations were carried out for 60 min at 37 °C in a circulating water bath in the dark. Reactions were stopped by adding the same volume of chloroform. After recovering the chloroform phase, the amount of bilirubin formed was measured with a double-beam spectrophotometer as OD464–530 nm (extinction coefficient, 40 mM/cm^–1 for bilirubin). One unit of the enzyme was defined as the amount of enzyme catalyzing the formation of 1 nmol of bilirubin/mg protein/h.

HO-2 = biological target: T2, HO-2 (Rattus norvegicus, UniProt P23711); experiment: HO-2 enzymatic activity, rat brain microsomal fraction (bilirubin formation); assay type: biochemical; settings: mean of triplicate ± SD
T2 construct: selected to use the most native (i.e., closest to in vivo) forms of HO-1 and HO-2; from tissue; host or cells: rat brain (male Sprague-Dawley), microsomal fraction
T2 sequence (P23711 1-315): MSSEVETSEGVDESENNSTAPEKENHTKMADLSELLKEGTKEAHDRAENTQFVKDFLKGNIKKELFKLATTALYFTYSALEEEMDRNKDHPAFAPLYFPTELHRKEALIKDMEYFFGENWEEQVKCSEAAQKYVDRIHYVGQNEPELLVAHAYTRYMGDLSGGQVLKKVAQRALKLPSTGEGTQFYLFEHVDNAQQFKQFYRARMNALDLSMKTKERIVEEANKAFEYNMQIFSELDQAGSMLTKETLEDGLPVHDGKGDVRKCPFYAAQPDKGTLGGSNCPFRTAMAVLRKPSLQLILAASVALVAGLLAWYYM
Experimental: as §1, §2, §3

U87MG cells = experiment: MTT cell viability assay, U87MG; assay type: cell-based, human; settings: 48 h
Experimental: (§4) Experiments were performed on human GBM cell lines U87MG (ATCCC number #HTB-14) and A172 (ATCCC #CRL-1620) on DU145 (ATCC HTB-81) and human lung adenocarcinoma A549 (ATCC CCL-185-LUC2). All cell lines were obtained from the American Type Culture Collection (ATCC, Rockville, MD). Cells were grown in Dulbecco’s modified Eagle’s medium (DMEM) supplemented with 10% of heat-inactivated fetal bovine serum (FBS), 100 U/mL of penicillin, and 100 μg/mL of streptomycin (Sigma-Aldrich, Steinheim, Germany). Cells were incubated at 37 °C in a humidified atmosphere with 5% CO2.
(§5) The effect of selected compounds 7i and 7l–p on cell viability was assessed by performing an MTT assay. Cells were seeded into 96-well plates at a density of 7 × 10^3 cells/well in 100 μL of culture medium. After 24 h, cells were treated with selected compounds at three different concentrations (1 μM, 10 μM, and 50 μM) for 48 h. Following treatments, 0.5 mg/mL of 3-[4,5-dimethylthiazol-2-yl]-2,5-diphenyltetrazolium bromide (MTT) (Sigma-Aldrich) was added to each well and incubated for 4 h at 37 °C. Finally, dimethyl-sulfoxide (DMSO) was used to dissolve formazan salts, and absorbance was measured at 570 nm in a microplate reader (Biotek Synergy-HT). Eight replicate wells were used for each group.

A172 cells = experiment: MTT cell viability assay, A172; assay type: cell-based, human; settings: 48 h
Experimental: as §4, §5

[1] = all tested concentrations (1, 10, 50 μM)
[2] = at both concentrations 1 and 10 μM

CN(C(=O)Cn1ccnc1)C(c1ccccc1)c1ccc(Cl)cc1 (stereo not shown) [7l, N-((4-Chlorophenyl)(phenyl)methyl)-2-(1H-imidazol-1-yl)-N-methylacetamide]
HO-1 vs HO-2 selectivity (in words) (HO-1): superimposable HO-1 and HO-2 IC50 values
IC50 (HO-1): 0.95 ± 0.04 µM
SI (HO-2/HO-1) (HO-1): 1.3
IC50 (HO-2): 1.2 ± 0.07 µM
cell viability reduction (U87MG cells; at all of the tested concentrations (1, 10, 50 μM)): more than 60%
cell viability reduction (in words) (A172 cells; [1]): remarkable reduction of cell viability

CN(C(=O)Cn1ccnc1)C(c1ccccc1)c1ccc(I)cc1 (stereo not shown) [7n, 2-(1H-Imidazol-1-yl)-N-((4-iodophenyl)(phenyl)methyl)-N-methylacetamide]
fold more selective for the inducible isoform (HO-1 over HO-2) (HO-1): about 48 fold
IC50 (HO-1): 0.95 ± 0.09 µM
SI (HO-2/HO-1) (HO-1): 48.3
IC50 (HO-2): 45.9 ± 1.67 µM
cell viability reduction (U87MG cells; [2]): more than 30%
cell viability reduction (in words) (A172 cells; 10 μM): milder activity
cell viability reduction (in words) (A172 cells; 50 μM): only at 50 μM

CN(C(=O)Cn1ccnc1)C(c1ccccc1)c1ccc(OCc2ccccc2)cc1 (stereo not shown) [7o, N-((4-(Benzyloxy)phenyl)(phenyl)methyl)-2-(1H-imidazol-1-yl)-N-methylacetamide]
fold more selective for the inducible isoform (HO-1 over HO-2) (HO-1): 9 fold
IC50 (HO-1): 1.2 ± 0.11 µM
SI (HO-2/HO-1) (HO-1): 9.3
IC50 (HO-2): 11.2 ± 0.18 µM
cell viability reduction (U87MG cells; [2]): around 20%
cell viability reduction (in words) (A172 cells; [1]): remarkable reduction of cell viability
